Results on two compounds are retold here after patent publication US6903119B1, “Amino acid derivatives and drugs containing the same as the active ingredient” (Ono Pharmaceutical Co., Ltd., priority 1998, dated 2005).

The target of the assay is T1, N-type calcium channel (Homo sapiens, UniProt Q00975).
T1 construct: Cell line was differentiated according to the method described in FEBS Lett. (1988) 235 178-182; endogenous in cells; host or cells: unnamed cell line, differentiated per FEBS Lett. (1988) 235 178-182
T1 sequence (Q00975 whole entry): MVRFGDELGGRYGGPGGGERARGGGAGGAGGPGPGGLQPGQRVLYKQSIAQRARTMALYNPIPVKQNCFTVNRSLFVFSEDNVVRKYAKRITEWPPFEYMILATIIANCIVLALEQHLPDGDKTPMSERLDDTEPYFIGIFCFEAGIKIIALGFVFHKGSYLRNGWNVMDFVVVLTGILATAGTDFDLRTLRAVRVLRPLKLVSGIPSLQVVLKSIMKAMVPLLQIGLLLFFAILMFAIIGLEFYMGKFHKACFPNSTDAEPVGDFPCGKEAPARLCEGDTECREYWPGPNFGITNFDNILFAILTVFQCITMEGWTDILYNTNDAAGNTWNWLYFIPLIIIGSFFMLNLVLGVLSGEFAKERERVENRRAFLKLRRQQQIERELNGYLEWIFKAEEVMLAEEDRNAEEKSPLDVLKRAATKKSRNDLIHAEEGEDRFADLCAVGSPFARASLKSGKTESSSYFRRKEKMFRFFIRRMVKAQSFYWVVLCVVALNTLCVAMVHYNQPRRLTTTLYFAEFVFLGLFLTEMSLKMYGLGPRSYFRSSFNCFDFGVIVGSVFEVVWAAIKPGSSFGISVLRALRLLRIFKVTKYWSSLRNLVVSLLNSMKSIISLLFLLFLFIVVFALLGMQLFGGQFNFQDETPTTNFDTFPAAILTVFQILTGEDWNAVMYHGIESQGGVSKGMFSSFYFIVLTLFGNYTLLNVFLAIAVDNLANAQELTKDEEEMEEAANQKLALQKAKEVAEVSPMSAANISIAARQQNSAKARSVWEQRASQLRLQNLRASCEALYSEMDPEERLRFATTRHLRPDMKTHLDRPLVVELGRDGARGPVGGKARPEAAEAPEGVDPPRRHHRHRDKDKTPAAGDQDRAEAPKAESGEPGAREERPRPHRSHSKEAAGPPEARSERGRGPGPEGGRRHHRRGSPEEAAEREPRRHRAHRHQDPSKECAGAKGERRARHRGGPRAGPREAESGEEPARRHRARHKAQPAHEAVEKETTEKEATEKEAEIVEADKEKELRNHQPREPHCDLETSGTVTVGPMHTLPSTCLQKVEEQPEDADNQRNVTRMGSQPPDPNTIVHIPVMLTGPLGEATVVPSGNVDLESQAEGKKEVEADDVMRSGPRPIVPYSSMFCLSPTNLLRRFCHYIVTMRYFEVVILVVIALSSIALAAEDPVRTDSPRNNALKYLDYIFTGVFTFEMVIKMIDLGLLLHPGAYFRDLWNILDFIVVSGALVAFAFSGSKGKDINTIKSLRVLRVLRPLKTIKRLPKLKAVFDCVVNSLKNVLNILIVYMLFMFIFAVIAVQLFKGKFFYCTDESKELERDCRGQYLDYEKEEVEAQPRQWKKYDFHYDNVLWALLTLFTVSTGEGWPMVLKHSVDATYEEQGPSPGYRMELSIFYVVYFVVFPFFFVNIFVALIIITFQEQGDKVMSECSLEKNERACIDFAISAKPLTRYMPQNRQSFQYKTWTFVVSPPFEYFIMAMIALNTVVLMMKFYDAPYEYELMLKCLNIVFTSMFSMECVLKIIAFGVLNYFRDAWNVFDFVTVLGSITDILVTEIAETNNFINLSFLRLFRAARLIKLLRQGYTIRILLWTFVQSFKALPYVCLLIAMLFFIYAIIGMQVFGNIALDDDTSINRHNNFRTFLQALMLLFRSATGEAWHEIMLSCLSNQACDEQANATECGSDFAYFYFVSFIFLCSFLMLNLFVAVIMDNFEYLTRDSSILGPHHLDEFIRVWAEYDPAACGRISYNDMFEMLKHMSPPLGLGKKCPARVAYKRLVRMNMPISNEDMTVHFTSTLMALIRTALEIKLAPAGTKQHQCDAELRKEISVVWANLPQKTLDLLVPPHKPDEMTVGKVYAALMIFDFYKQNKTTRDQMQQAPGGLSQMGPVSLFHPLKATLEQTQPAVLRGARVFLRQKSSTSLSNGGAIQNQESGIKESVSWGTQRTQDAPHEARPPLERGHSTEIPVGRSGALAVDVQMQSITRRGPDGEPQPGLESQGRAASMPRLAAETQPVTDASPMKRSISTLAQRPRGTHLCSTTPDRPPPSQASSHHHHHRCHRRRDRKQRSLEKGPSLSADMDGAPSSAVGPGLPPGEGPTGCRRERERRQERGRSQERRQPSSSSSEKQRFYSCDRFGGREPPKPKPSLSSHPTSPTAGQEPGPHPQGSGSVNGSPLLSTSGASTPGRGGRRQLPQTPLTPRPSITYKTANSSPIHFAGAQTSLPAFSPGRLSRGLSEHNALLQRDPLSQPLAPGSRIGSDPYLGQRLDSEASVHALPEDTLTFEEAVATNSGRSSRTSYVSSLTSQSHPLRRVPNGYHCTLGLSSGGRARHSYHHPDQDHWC
In words: Determination of inhibitory activity on N-type calcium channel (Fura-2 calcium influx, KCl depolarization, with nifedipine). The conditions noted are these: compound at final concentration of 3 μM, depolarized with 80 mM KCl, Fura-2 fluorescence, read-out: Inhibitory effect on calcium flow (%). The class given is cell-based. On the procedure:
Determination of Inhibitory Activity on N-type Calcium Channel:
Cell line was differentiated according to the method described in FEBS Lett. (1988) 235 178-182. The cell was loaded with fluoriescent reagent, Fura-2 AM (at the final concentration of 10 μM), at 37° C. for 30 minutes and suspended in Krebs-buffer containing HEPES (25 mM) to obtain the cell suspension. The obtained cell suspension was incubated in the presence or absence of the compounds of the present invention with nifedipine for 5 minutes. The cell was depolarized by adding potassium chloride solution (at the final concentration of 80 mM) thereto and then a fluorescence intensity at the emission wavelength of 500 nm excited by the UV of 340 nm and 380 nm alternately was measured using the intracellular calcium analyzer (Nippon Bunko Co., CAF-110). The inhibitory activity of the compound of the present invention (at the final concentration of 3 μM) on calcium influx into the cell was calculated from the difference in changing the fluorescence intensity at peak (ΔR) according to the following equation. [formula]

Counter-ions that a name gives are not always drawn.

With `CC(C)(C)CC(=O)N1CSC[C@H]1C(=O)N[C@@H](CSCC1CCCCC1)C(=O)NC1CCN(Cc2ccccc2)CC1` [11 (2), (2R)-N-(1-benzylpiperidin-4-yl)-3-cyclohexylmethylthio-2-((4R)-3-(3,3-dimethylbutyryl)thiazolidin-4-ylcarbonylamino)propanamide.hydrochloride], the inhibition at 3 µM stood at 89%.

`COCCOC(=O)N1CSC[C@H]1C(=O)N[C@@H](CSCC1CCCCC1)C(=O)NC1CCN(Cc2ccccc2)CC1` [compound 11]: the inhibition at 3 µM is 81%.
